Here are results for 24 molecules from patent publication US9765092B2, “Tricyclic piperidine compounds” (ACTELION PHARMACEUTICALS LTD, priority 2013, dated 2017).

The test addresses human TPH1 (Homo sapiens (Human), UniProt P17752). The experiment in a line: Biochemical in vitro assay using fluorescence readout (TPH1 inhibition).
The mark [1] stands for this setting: human TPH1, fluorescence readout.
The mark [2] stands for this setting: full length human TPH1, 40 μM L-tryptophan, 15° C., 60 minutes, fluorescence at 540 nm, mean if determined several times.

Chain of human TPH1 (P17752 whole entry): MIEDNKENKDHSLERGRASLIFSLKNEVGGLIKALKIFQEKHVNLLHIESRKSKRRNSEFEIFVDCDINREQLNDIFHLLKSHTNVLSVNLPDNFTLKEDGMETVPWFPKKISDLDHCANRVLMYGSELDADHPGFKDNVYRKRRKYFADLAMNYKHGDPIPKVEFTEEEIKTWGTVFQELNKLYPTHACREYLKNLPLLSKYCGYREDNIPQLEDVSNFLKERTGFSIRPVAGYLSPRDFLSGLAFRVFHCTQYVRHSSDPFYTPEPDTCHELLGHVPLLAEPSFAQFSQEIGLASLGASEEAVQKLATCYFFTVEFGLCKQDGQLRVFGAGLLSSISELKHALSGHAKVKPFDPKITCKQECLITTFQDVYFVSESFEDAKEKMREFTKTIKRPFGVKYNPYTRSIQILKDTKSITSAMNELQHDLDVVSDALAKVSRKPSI

The IC50 is the concentration that inhibits the measured activity by half. The low end stands for inhibition by little substance, the high end for a need for much substance. Molecule `COC(=O)c1cnc(C2c3c(nc4sc(C)nn34)CCN2C(=O)COc2ccc(NS(=O)(=O)C3CC3)nc2Cl)s1` (stereo not drawn) [Example 1.28.3, Methyl 2-(6-(2-((2-chloro-6-(cyclopropanesulfonamido)pyridin-3-yl)oxy)acetyl)-2-methyl-5,6,7,8-tetrahydro-[1,3,4]thiadiazolo[2′,3′:2,3]imidazo[4,5-c]pyridin-5-yl)thiazole-5-carboxylate] came in with an IC50 under setting [1] of 45 nM.
With `CCc1nc(NS(C)(=O)=O)ccc1OCC(=O)N1CCc2nc3sc(C(F)(F)F)nn3c2C1c1sc(C)nc1C` (stereo not drawn) [Example 5.4.2, N-(5-(2-(5-(2,4-dimethylthiazol-5-yl)-2-(trifluoromethyl)-7,8-dihydro-[1,3,4]thiadiazolo[2′,3′:2,3]imidazo[4,5-c]pyridin-6(5H)-yl)-2-oxoethoxy)-6-ethylpyridin-2-yl)methanesulfonamide], the IC50 under setting [1] was 27 nM.
Same read-out and setting: under `CCc1nc(C)ccc1OCC(=O)N1CCc2nc3sccn3c2C1c1ccc(C(F)(F)F)nc1C` (stereo not drawn) [Example 6.17.1, 2-((2-ethyl-6-methylpyridin-3-yl)oxy)-1-(5-(2-methyl-6-(trifluoromethyl)pyridin-3-yl)-7,8-dihydrothiazolo-[2′,3′:2,3]imidazo[4,5-c]pyridin-6(5H)-yl)ethanone] stands 194 nM; under `Cc1nn2c3c(nc2s1)CCN(C(=O)COc1ccc(S(N)(=O)=O)cc1C)C3c1ccc(C2CC2)cc1F` (stereo not drawn) [Example 1.6.14, 4-(2-(5-(4-cyclopropyl-2-fluorophenyl)-2-methyl-7,8-dihydro-[1,3,4]thiadiazolo[2′,3′:2,3]imidazo[4,5-c]pyridin-6(5H)-yl)-2-oxoethoxy)-3-methylbenzenesulfonamide], 45 nM.
Consider `Cc1nn2c3c(nc2s1)CCN(C(=O)COc1ccc(C(=O)N(C)C)nc1Cl)C3c1cnc(N(C)C)s1` (stereo not drawn) [Example 1.22.9, 6-Chloro-5-(2-(5-(2-(dimethylamino)thiazol-5-yl)-2-methyl-7,8-dihydro-[1,3,4]thia-diazolo[2′,3′:2,3]imidazo[4,5-c]pyridin-6(5H)-yl)-2-oxoethoxy)-N,N-dimethylpicolinamide], for which, under setting [2], half-maximal inhibition (IC50) required 9 nM. This lies in the single-digit nanomolar range.
For `O=C(COc1ccc(Cl)cc1Cl)N1CCc2nc3sccn3c2C1c1nc2ccccc2s1` (stereo not drawn) [Example 6.12.3, 1-(5-(benzo[d]thiazol-2-yl)-7,8-dihydrothiazolo-[2′,3′:2,3]imidazo[4,5-c]pyridin-6(5H)-yl)-2-(2,4-dichlorophenoxy)ethanone], the IC50 under setting [1] was found to be 20 nM.
`Cc1nn2c3c(nc2s1)CCN(C(=O)COc1ccc(C(=O)N(C)C)nc1Cl)C3c1sccc1F` (stereo not drawn) [Example 1.23.6, 6-chloro-5-(2-(5-(3-fluorothiophen-2-yl)-2-methyl-7,8-dihydro-[1,3,4]thiadiazolo[2′,3′:2,3]imidazo[4,5-c]pyridin-6(5H)-yl)-2-oxoethoxy)-N,N-dimethylpicolinamide] came in with an IC50 under setting [1] of 5 nM.
Same read-out and setting: for `CN(C)C(=O)c1cc(F)c(C2c3c(nc4sccn34)CCN2C(=O)COc2ccc(NS(C)(=O)=O)cc2Cl)s1` (stereo not drawn) [Example 6.9.1, 5-(6-(2-(2-chloro-4-(methylsulfonamido)phenoxy)-acetyl)-5,6,7,8-tetrahydrothiazolo[2′,3′:2,3]imidazo[4,5-c]pyridin-5-yl)-4-fluoro-N,N-dimethylthiophene-2-carboxamide] the value was 2 nM.
Under setting [2], `CONC(=O)c1ccc(OCC(=O)N2CCc3nc4sc(C)nn4c3C2c2ccc(Cl)cc2F)c(Cl)n1` (stereo not drawn) [Example 1.4.41, 6-Chloro-5-(2-(5-(4-chloro-2-fluorophenyl)-2-methyl-7,8-dihydro-[1,3,4]thiadiazolo[2′,3′:2,3]imidazo[4,5-c]pyridin-6(5H)-yl)-2-oxoethoxy)-N-methoxypicolinamide] gave an IC50 of 6 nM.
“2-(4-(aminomethyl)-2-chlorophenoxy)-1-(5-(3-fluorothiophen-2-yl)-2-methyl-7,8-dihydro-[1,3,4]thiadiazolo[2′,3′:2,3]imidazo[4,5-c]pyridin-6(5H)-yl)ethanone [Example 1.23.7]”: the IC50 under setting [1] came out at 38 nM.
`Cc1nn2c3c(nc2s1)CCN(C(=O)COc1ccc(N2CCOCC2)nc1Cl)C3c1cc(-c2nn[nH]n2)cs1` (stereo not drawn) [Example 1.63.1, 1-(5-(4-(2H-Tetrazol-5-yl)thiophen-2-yl)-2-methyl-7,8-dihydro-[1,3,4]-thiadiazolo-[2′,3′:2,3]imidazo[4,5-c]pyridin-6(5H)-yl)-2-((2-chloro-6-morpholinopyridin-3-yl)oxy)ethanone] gave an IC50 under setting [2] of 23 nM.
Under setting [1], `Cc1nn2c3c(nc2s1)CCN(C(=O)COc1cnc(N(C)C)nc1Cl)C3c1sccc1F` (stereo not drawn) [Example 1.23.11, 2-((4-chloro-2-(dimethylamino)pyrimidin-5-yl)oxy)-1-(5-(3-fluorothiophen-2-yl)-2-methyl-7,8-dihydro-[1,3,4]thiadiazolo[2′,3′:2,3]imidazo[4,5-c]pyridin-6(5H)-yl)ethanone] gave an IC50 of 6 nM.
`CNC(=O)c1cc(F)c(C2c3c(nc4sc(C)nn34)CCN2C(=O)COc2ccc(C#N)cc2Cl)s1` (stereo not drawn) [Example 1.25.8, 5-(6-(2-(2-chloro-4-cyanophenoxy)acetyl)-2-methyl-5,6,7,8-tetrahydro-[1,3,4]thiadiazolo[2′,3′:2,3]imidazo[4,5-c]pyridin-5-yl)-4-fluoro-N-methylthiophene-2-carboxamide] returned an IC50 under setting [1] of 43 nM. This IC50 lies about 7.2-fold higher than the previous one.
The same measure, in the same setting: for `COC(=O)c1cnc(C2c3c(nc4sc(C)nn34)CCN2C(=O)COc2ccc(N3CC(F)(F)C3)nc2Cl)s1` (stereo not drawn) [Example 1.28.4, Methyl 2-(6-(2-((2-chloro-6-(3,3-difluoroazetidin-1-yl)pyridin-3-yl)oxy)acetyl)-2-methyl-5,6,7,8-tetrahydro-[1,3,4]thiadiazolo[2′,3′:2,3]imidazo[4,5-c]pyridin-5-yl)thiazole-5-carboxylate] the value was 17 nM; for `Cn1nc(OCC(=O)N2CCc3nc4sccn4c3C2c2nc3ccccc3s2)c(Cl)c1C(F)(F)F` (stereo not drawn) [Example 6.12.7, 1-(5-(benzo[d]thiazol-2-yl)-7,8-dihydrothiazolo-[2′,3′:2,3]imidazo[4,5-c]pyridin-6(5H)-yl)-2-((4-chloro-1-methyl-5-(trifluoromethyl)-1H-pyrazol-3-yl)-oxy)ethanone], 62 nM.
The same measure, in the same setting: under `COCCOc1ccc(C2c3c(nc4sc(C)nn34)CCN2C(=O)COc2ccc(NS(C)(=O)=O)nc2Cl)c(F)c1` (stereo not drawn) [Example 1.83.2, N-(6-chloro-5-(2-(5-(2-fluoro-4-(2-methoxyethoxy)phenyl)-2-methyl-7,8-dihydro-[1,3,4]thiadiazolo[2′,3′:2,3]imidazo[4,5-c]pyridin-6(5H)-yl)-2-oxoethoxy)pyridin-2-yl)methanesulfonamide] stands 18 nM.
With `CCc1nc(C)c(C2c3c(nc4sc(C)nn34)CCN2C(=O)COc2ccc(NS(C)(=O)=O)nc2Cl)s1` (stereo not drawn) [Example 1.72.1, N-(6-chloro-5-(2-(5-(2-ethyl-4-methylthiazol-5-yl)-2-methyl-7,8-dihydro-[1,3,4]thiadiazolo[2′,3′:2,3]imidazo-[4,5-c]pyridin-6(5H)-yl)-2-oxoethoxy)pyridin-2-yl)methanesulfonamide], the half-maximal inhibitory concentration (IC50) under setting [1] worked out at 22 nM.
The same measure, in the same setting: for `Cc1nn2c3c(nc2s1)CCN(C(=O)C(C)(C)Oc1ccc(C(=O)N(C)C)nc1Cl)C3c1ccc(Cl)cc1F` (stereo not drawn) [Example 1.4.58, 6-chloro-5-((1-(5-(4-chloro-2-fluorophenyl)-2-methyl-7,8-dihydro-[1,3,4]thiadiazolo[2′,3′:2,3]imidazo[4,5-c]pyridin-6(5H)-yl)-2-methyl-1-oxopropan-2-yl)oxy)-N,N-dimethylpicolinamide] the value was 55 nM; for `Cc1nn2c3c(nc2s1)CCN(C(=O)COc1ccc(NS(C)(=O)=O)cc1Cl)C3c1ncc(Cl)cc1F` (stereo not drawn) [Example 1.33.7, N-(3-chloro-4-(2-(5-(5-chloro-3-fluoropyridin-2-yl)-2-methyl-7,8-dihydro-[1,3,4]thiadiazolo[2′,3′:2,3]imidazo[4,5-c]pyridin-6(5H)-yl)-2-oxoethoxy)phenyl)methanesulfonamide], 13 nM; for `Cc1nn2c3c(nc2s1)CCN(C(=O)COc1ccc(C(F)(F)F)cc1Cl)C3c1sc(C(=O)N(C)C)cc1F` (stereo not drawn) [Example 1.24.3, 5-(6-(2-(2-chloro-4-(trifluoromethyl)phenoxy)acetyl)-2-methyl-5,6,7,8-tetrahydro-[1,3,4]thiadiazolo[2′,3′:2,3]imidazo[4,5-c]pyridin-5-yl)-4-fluoro-N,N-dimethylthiophene-2-carboxamide], 8 nM.
On to `Cc1nn2c3c(nc2s1)CCN(C(=O)COc1ccc(C(=O)N(C)C2CC2)nc1Cl)C3c1ccc(C2CC2)cc1F` (stereo not drawn) [Example 1.6.28, 6-chloro-N-cyclopropyl-5-(2-(5-(4-cyclopropyl-2-fluoro-phenyl)-2-methyl-7,8-dihydro-[1,3,4]thiadiazolo-[2′,3′:2,3]imidazo[4,5-c]pyridin-6(5H)-yl)-2-oxoethoxy)-N-methylpicolinamide], for which, under setting [1], the half-inhibitory concentration (IC50) stood at 18 nM. Compared with the last molecule, the IC50 is about 2.2-fold higher.
Same read-out and setting: under `Cc1nn2c3c(nc2s1)CCN(C(=O)COc1ccc(N2CCOCC2)nc1Cl)C3c1nc(C(=O)N(C)C)cs1` (stereo not drawn) [Example 1.18.1, 2-(6-(2-((2-chloro-6-morpholinopyridin-3-yl)oxy)acetyl)-2-methyl-5,6,7,8-tetrahydro-[1,3,4]thiadiazolo[2′,3′:2,3]imidazo[4,5-c]pyridin-5-yl)-N,N-dimethylthiazole-4-carboxamide] stands 14 nM; under `Cc1cnc(C2c3c(nc4sc(C)nn34)CCN2C(=O)COc2ccc(-c3ncco3)nc2Cl)c(F)c1` (stereo not drawn) [Example 1.31.13, 2-((2-chloro-6-(oxazol-2-yl)pyridin-3-yl)oxy)-1-(5-(3-fluoro-5-methylpyridin-2-yl)-2-methyl-7,8-dihydro-[1,3,4]thiadiazolo[2′,3′:2,3]imidazo[4,5-c]pyridin-6(5H)-yl)ethanone], 16 nM.
Same read-out and setting: under `CCc1nc(C)ccc1OCC(=O)N1CCc2nc3sc(C)nn3c2C1c1ccc(Cl)cc1F` (stereo not drawn) [Example 1.4.2, 1-(5-(4-chloro-2-fluorophenyl)-2-methyl-7,8-dihydro-[1,3,4]thiadiazolo[2′,3′:2,3]imidazo[4,5-c]pyridin-6(5H)-yl)-2-((2-ethyl-6-methylpyridin-3-yl)oxy)ethanone] stands 13 nM.
